Read-outs that look alike come from different tables or passages of the source.
Legend:
[1] = system: rate leukocytes; design: method as in ref 19 (a number printed in a supplementary file, which may have a reference list of its own: not looked up in the article's list); conditions: 10^-3 to 10^-6M; cited from earlier work
[2] = system: human polymorphonuclear neutrophil; design: method as in ref 19 (a number printed in a supplementary file, which may have a reference list of its own: not looked up in the article's list); conditions: 0.1 - 1.0 µg auranofin/mL; cited from earlier work
[3] = design: method as in ref 19 (a number printed in a supplementary file, which may have a reference list of its own: not looked up in the article's list); conditions: 5 and 10 mg gold/kg p.o.; cited from earlier work
[4] = design: method as in ref 19 (a number printed in a supplementary file, which may have a reference list of its own: not looked up in the article's list); conditions: 0.625 - 10 mg gold/kg p.o.; cited from earlier work
[5] = cited from earlier work
[6] = system: A673 cells; experiment: siRNA silencing of EWS-FLI1 followed by auranofin treatment (CellTiter-Blue); type: cell-based; conditions: then auranofin 72 h
Method: To knock down the expression of EWS-FLI1 in A673 Ewing cells, we designed two different siRNAs, corresponding to the sequence within the 3′ downstream half of EWS-FLI1 mRNA (siFLI1-#3) and the sequence of the breakpoint of EWS-FLI1 type I mRNA (siBPEF1) respectively. To examine whether the siRNAs could abolish the expression of EWS-FLI1, the effects of siRNAs on the protein levels of EWS-FLI1 were analyzed by western blot (see Supplementary methods).
(B) Cell viability was assessed by the CellTiter Blue assay in A673 cells treated by siControl, siFLI1-#3 or siBPEF1 for 48 h then followed by the incubation of auranofin ranging from 7.8 nmol/L to 1 μmol/L for 72h. Data are presented as the mean ± SD of three independent experiments performed in triplicate. (C) In vivo studies of auranofin, ganetespib and the combination treatment in an EWS xenograft mice model (n = 12 per group). The percentage of survival rate in control, auranofin treated, ganetespib treated, and auranofin in combination with ganetespib treated groups.
Predict drugs using three computational resolved on the 4–20% Mini-PROTEAN TGXTM approaches Precast Gels (Bio-Rad, Hercules, CA) and transferred onto PVDF membranes (Bio-Rad, Hercules, CA).
Disease-based approach: We used the disease Immunoblotting was done with the following antibodies: signature to query the drug expression database and rabbit polyclonal anti-FLI1 (C-19) (Santa Cruz selected the top 20 negatively scored hits. siRNA-based Biotechnology, Dallas, TX), mouse monoclonal anti-approach: We used the siEWS-FLI1 mediated signature β-actin (Sigma, St. Louis, MO), HRP conjugated goat to query the drug expression database and selected the top anti-rabbit IgG (Cell Signaling, Danvers, MA) and 20 positively scored hits. […] Membranes were developed using ECL database and select the top 20 negatively scored hits. […]
(Lafayette, CO). […] After 72 h of auranofin treatment, cell viability was evaluated using the 18. […]

[7] = design: method as in ref 19 (a number printed in a supplementary file, which may have a reference list of its own: not looked up in the article's list); conditions: rats, up to 15 mg gold/kg p.o.; cited from earlier work
[8] = cited from earlier work; remark: listed apart in the source
[9] = after 6 months of auranofin 3 mg BID

For `CC(=O)OC[C@H]1O[C@@H]([S-])[C@H](OC(C)=O)[C@@H](OC(C)=O)[C@@H]1OC(C)=O.CCP(CC)CC.[Au+]` [Auranofin, auranofin], the “particle-stimulated lysosomal enzyme release” value [1] is given as “significantly reduced”, the “superoxide production and phagocytosis” value [2] is given as “inhibited” and the “low-grade oxazolone-induced contact sensitivity” value [3] is given as “stimulated”. For the same molecule, the “suboptimal delayed hypersensitivity response” value [4] was “stimulatory effect”, the LD50 ([5]; Rat CD, F, PO) was 330 mg/kg and the “acute oral LD50” value ([5]; adult rats) was 265 mg/kg. The minimum lethal dose ([5]; rats) was 30 mg/kg, the “lethality (LD50) in rats when given concomitantly with other drugs” value ([5]; warfarin at usual human daily dose, clonidine, propoxyphene at five times, others at ten or twenty times) was “potentiated” and the IC50 ([6]; siBPEF1 48 h, read-out: IC50 (siBPEF1)) was > 1000 nM. For the same molecule, the IC50 ([6]; siControl 48 h, read-out: IC50 (siControl)) was 270 ± 20 nM, the IC50 ([6]; siFLI1-#3 48 h, read-out: IC50 (siFLI1-#3)) was > 1000 nM and the “induction of liver enzyme activity” value [7] was “failed to induce liver enzyme activity”. For the same molecule, the “mean steady state blood-gold concentration” value ([8]; 6 mg auranofin/day, n=63 patients) was 0.68 ± 0.45 µg/mL, the “labelled gold excreted by day 10” value [8, 9] was 75% and the “labelled gold excreted in feces by day 10” value [8, 9] was 70%. The “labelled gold excreted in the urine by day 10” value [8, 9] was 5%, the mean plasma half-life [8, 9] was 25.5 days and the “mean total body terminal half-life” value [8, 9] was 80.8 days. The “absorbed gold in erythrocytes / red cells” value [8] was “approximately 40%”, the “gold in blood associated with red cells” value [8] was ~40% and the “gold in blood associated with serum proteins” value [8] was 60%. For the same molecule, the “gold in plasma / associated with serum proteins” value [8] was 60%, the “labelled gold excreted six months after single dose” value [8] was “approximately 99.6%” and the “labelled gold retained in the body six months after single dose” value [8] was 0.4%. For the same molecule, the “time to steady state blood gold levels” value ([8]; clinical studies) was “about 3 months”, the “time to steady state blood-gold concentrations” value ([8]; clinical studies) was “about three m onths” and the “fraction of gold absorbed after oral administration” value ([8]; human, oral) was ~25%. For the same molecule, the “mean terminal body half-life” value ([8]; n = 5) was 80 days, the “mean terminal plasma half-life of auranofin gold at steady state” value ([8]; n = 5) was 26 days and the “labelled gold excreted by day 10” value ([8]; single 6 mg oral dose) was 77%. For the same molecule, the “labelled gold excreted in the feces by day 10” value ([8]; single 6 mg oral dose) was 73%, the “labelled gold excreted in the urine by day 10” value ([8]; single 6 mg oral dose) was 4% and the “mean plasma terminal half-life” value ([8]; single 6 mg oral dose) was 17 days. For the same molecule, the “mean total body terminal half-life” value ([8]; single 6 mg oral dose) was 58 days, the “absorbed gold excreted in urine” value ([8]; single dose) was “About 60%” and the “administered dose excreted in urine” value ([8]; single dose) was 15%.

— PMC5354814, “In silico and in vitro drug screening identifies new therapeutic approaches for Ewing sarcoma” (Oncotarget, 2016)
